Test results: patent publication US11840531B2, “CDK8/19 inhibitors” (JOINT STOCK COMPANY “BIOCAD”, priority 2018, dated 2023)
Counter-ions that a name gives are not always drawn. Blank lines part the entries; values can stand above or below the molecule they belong to.

How the values were obtained:
[1] = system: KG-1 cells; experiment: Antiproliferative activity, KG-1 cells (AlamarBlue); assay type: cell-based; conditions: 120 h incubation
Experimental: (§1) Antiproliferative activity of CDK8 inhibitors according to the present invention was measured in a cell-based test on continuous cell cultures MV4-11 (biphenotypic myelomonocytic leukemia, ATCC® CRL-9591™), KG-1 (acute myeloid leukemia, ATCC® CCL-246™) using a vital stain AlamarBlue (ThermoFisher, #DAL1100). The cells were grown in RPMI-1640 (PanEco, #C330p) medium with addition of 10% FBS (Gibco, #16140-071); washed and resuspended in culture medium with 10% FBS (Gibco, #16140-071) in 96-well culture plates (Corning, #3599) with ≈10×10^3 cells in […] of medium per well. The compounds in question were dissolved in DMSO and diluted with a medium with 10% FBS (Gibco, #16140-071) to a final concentration ranging from 0 to 100 μM. […] of diluted compounds were then added to each well (final DMSO concentration was less than 1%) and incubated under 5% CO2 atmosphere at 37° C. for 120 h. After incubating, 15 μL/well of AlamarBlue (ThermoFisher, #DAL1100) reagent was added, contents of plates were mixed in an orbital shaker (Biosan, Latvia) and further incubated for 3-5 h at 37° C. under 5% CO2 atmosphere. Number of living cells was estimated using a microplate spectrophotometer (Tecan Infinite M200Pro, Switzerland) measuring fluorescent signal at the excitation wavelength (λEx) of 540 nm and emission wavelength (λEm) of 590 nm.
(§2) IC50 values were calculated using Magellan 7.2 software (Tecan, Switzerland) approximating experimental points by four-parameter logistic model with the optimization by Levenberg-Marquardt (Table 6).

[2] = biological target: CDK8/Cyclin C (Homo sapiens (Human), UniProt P49336); experiment: LanthaScreen binding to recombinant CDK8/Cyclin C; conditions: TR-FRET, Tracer 236 10 nM, CDK8/Cyclin C 5 nM
Experimental: Capability of compounds of the present invention to bind to CDK8 protein was detected using LanthaScreen (ThermoFisher) assay. We detected FRET signal proportional to the amount of CDK8-bound fluorescently-labeled ligand (Tracer 236) that competes with inhibitor for ATP binding site. We carried out the measurements in a 15 μl reaction volume using a 384-well plate (Corning, #CLS4513). Enzyme CDK8/Cyclin C (ThermoFisher, #PR7261B) was mixed with antibodies Anti-His-tag-Biotin (ThermoFisher, #PV6090), Streptavidin-Eu (ThermoFisher, #PV6025), the resulting mixture was added to plate wells (5 MKπ/well). Final concentrations of substances were as follows: CDK8/Cyclin C—5 nM, Streptavidin-Eu—3 nM, Anti-His-tag-Biotin—3 nM. Staurosporine (S4400, Sigma) was used as a reference inhibitor, and 0.1% solution of dimethyl sulphoxide (DMSO) in reaction buffer was used as a blank, the reaction buffer comprised 250 mM HEPES (pH 7.5), 50 mM MgCl2, 5 mM EGTA, and 0.05% Brij-35.
The inhibitors and controls in question were added to corresponding wells (5 μl/well). The plate was incubated at room temperature for 20 minutes. After incubating, 5 μl/well of tracer solution Alexa Fluor-647 (Kinase Tracer 236, ThermoFisher, #PV5592)) was added to the wells. Final concentration of tracer was 10 nM. Reaction buffer, instead of tracer solution, was used as a negative control. The plate was incubated for 40 minutes at 25° C., TR-FRET signal was then measured according to the manufacturer's guidelines on SPARK20 plate reader (Tecan, Switzerland), and the value was converted to the amount of kinase-bound tracer. IC50 values were calculated using SparkControl Magellan 1.2 software (Tecan, Switzerland) approximating experimental points by four-parameter logistic model with the optimization by Levenberg-Marquardt (Table 5).

[3] = General cytotoxicity on HepG2 cells; assay type: cell-based; conditions: human, 72 h incubation
Experimental: The CC50 values were determined in the test for General cytotoxicity On HepG2 cells (hepatocellular carcinoma, ATCC® HB-8065™). Cells per well were seeded in 96-well plates (Corning, #3599) at a concentration ≈20×10^3 cells in 100 μL of medium and incubated for 72 h with added compounds within the range of concentrations of 200 to 0.78 μM. Cell viability was assessed using the above method.

[4] = Stability of the compounds in human blood plasma; assay type: in vitro ADME; conditions: pooled human blood plasma, 10 μM, 4 hours at 37° C.
Experimental: To assess the blood plasma stability of the compounds, we used pooled human blood plasma taken from ten healthy donors. The initial candidate solution (10 mM in DMSO) was diluted with pooled blood plasma to a concentration of 10 μm (test solution). The test solution was incubated in a dry block thermostat for 4 hours at 37° C. HPLC with Agilent 1200 liquid chromatography system (Agilent, USA) was employed to determine peak areas of the compounds in test samples, said peak areas corresponding to the initial test time (prior to incubation) and the final test time (after incubation in a dry block thermostat for 4 hours at 37° C.), proteins were preliminarily precipitated with acetonitrile. Chromatographic analysis was performed in a gradient elution regime with a flow rate of 1 mL/min Substance amount in % in a sample after thermostatting was determined.
The stability of the compounds was estimated. The compounds described herein show at least 90% chemical stability, i.e. they are chemically stable in human blood plasma (Table 2).

[5] = system: MV4-11 cells; experiment: Antiproliferative activity, MV4-11 cells (AlamarBlue); assay type: cell-based; conditions: Homo sapiens, 120 h incubation, read-out: MV-4-11 IC50
Experimental: as §1, §2

[6] = Permeability through Caco-2 cell monolayer; assay type: in vitro ADME; conditions: human; for Papp A→B at 2 h, 10 μM: Caco-2, A→B, pH 6.5/7.4, 2 hour incubation; for efflux ratio at 2 h, 10 μM: Caco-2, Papp B-A/Papp A-B
Experimental: Estimation of permeability through Caco-2 cell monolayer enables assessment of the ability of the substances to penetrate through biological membranes by means of both active and passive transport.
Intestinal epithelial cells Caco-2 were grown on filter inserts (pore size 0.4 jam, BD Falcon with High Density) for 21 days; monolayer integrity was then checked using Lucifer Yellow (Sigma-Aldrich, USA) according to the standard protocol. In A→B transfer (“intestinal lumen”-“blood stream” transfer), solutions of the test substances in buffer, pH 6.5 (HBSS, 10 mM HEPES, 15 mM glucose) at a concentration of 10 μM were added to the upper chamber; whereas the lower chamber was filled with buffer, pH 7.4 (HBSS, 10 mM HEPES, 15 mM Glucose, 1% BSA). In B→A transfer (“blood stream”-“intestinal lumen” transfer), the upper chamber was filled with buffer, pH 6.5, whereas the solutions of the test substances in buffer, pH 7.4, at a concentration of 10 μM were added to the lower chamber. A highly permeable substance propranolol was used as a control.
After 2 hour incubation at 37° C. under an atmosphere containing 5% CO2, the amounts of the test substances in the upper and lower chambers were measured by HPLC using an Agilent1200 HPLC system (Agilent, USA), proteins were preliminarily precipitated with acetonitrile. Chromatographic analysis was performed in a gradient elution regime with a flow rate of 1 mL/min. The peak areas corresponding to the compounds were detected on chromatograms. Based on the peak areas of a compound in the calibration standards, concentration of the compound in the initial solution and in the samples from upper chamber wells and lower chamber wells was measured.
Cellular permeability coefficient Papp was calculated by the formula: Papp=(Ca(t)*Va)/(Cd(0)*t*Area), where Papp is the effective permeability constant, m/s V is the volume of solution (0.8 ml in A→B test, 0.2 ml in B→A test), ml Area is the membrane surface area (0.33 cm^2), cm^2 t is the time of incubation (7200 sec), sec Cd(0) is the initial solution concentration, μM Ca(t) is the concentration of the solution after 2 hours (the concentration in the sample from the well of the lower chamber in A→B test; the concentration in the sample from the well of the top chamber in B→A test), μM
The value was calculated by the following formula: efflux=Papp B-A/Papp A-B, where Pape A-B-direct A→B test permeability value Papp B-A-reverse B→A test permeability value

CDK8/Cyclin C, sequence (P49336 whole entry): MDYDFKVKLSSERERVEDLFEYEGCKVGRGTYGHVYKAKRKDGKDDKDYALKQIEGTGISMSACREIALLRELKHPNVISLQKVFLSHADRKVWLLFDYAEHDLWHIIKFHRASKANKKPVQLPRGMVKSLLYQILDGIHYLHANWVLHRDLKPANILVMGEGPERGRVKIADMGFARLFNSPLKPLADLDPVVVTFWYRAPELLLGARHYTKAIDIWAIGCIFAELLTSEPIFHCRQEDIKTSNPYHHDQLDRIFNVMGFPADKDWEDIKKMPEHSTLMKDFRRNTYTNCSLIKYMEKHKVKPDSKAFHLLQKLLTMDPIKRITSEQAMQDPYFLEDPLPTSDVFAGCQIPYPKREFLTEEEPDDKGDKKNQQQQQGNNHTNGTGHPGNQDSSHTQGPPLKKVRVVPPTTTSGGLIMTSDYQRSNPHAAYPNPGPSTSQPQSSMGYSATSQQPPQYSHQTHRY
CDK8/Cyclin C, sequence (P24863 whole entry partner): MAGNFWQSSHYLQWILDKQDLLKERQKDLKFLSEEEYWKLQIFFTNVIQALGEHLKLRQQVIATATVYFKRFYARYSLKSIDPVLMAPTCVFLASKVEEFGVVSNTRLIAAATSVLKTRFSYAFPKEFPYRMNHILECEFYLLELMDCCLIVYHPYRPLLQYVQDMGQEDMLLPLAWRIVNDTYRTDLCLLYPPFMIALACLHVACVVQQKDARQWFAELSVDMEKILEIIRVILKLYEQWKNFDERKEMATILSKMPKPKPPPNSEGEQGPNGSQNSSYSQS

Structure (SMILES): CN1CCN(C(=O)Cn2cc(-c3ccc(-c4cnc(N)c5ncc(C(=O)NCC6CC6)cc45)cc3)cn2)CC1 [Compound 3.44, 8-amino-N-(cyclopropylmethyl)-5-(4-(1-(2-(4-methylpiperazin-1-yl)-2-oxoethyl)-1H-pyrazole-4-yl)phenyl)-1,7-naphthyridine-3-carboxamide]
IC50 ([1]; Homo sapiens, KG-1, 120 h): 0.7 nM | IC50 [2]: 1.4 nM | CC50 at 72 h [3]: 65300 nM | Chemical stability in human blood plasma 4 h, % [4]: 100.0% | IC50 [5]: 0.7 nM

Structure (SMILES): COCCN(C)C(=O)c1cnc2c(N)ncc(-c3ccc(-c4cnn(CC(=O)N5CCN(C)CC5)c4)cc3)c2c1 [Compound 3.56, 8-amino-N-(2-methoxyethyl)-N-methyl-5-(4-(1-(2-(4-methylpiperazine-1-yl)-2-oxoethyl)-1H-pyrazole-4-yl)phenyl)-1,7-naphthyridine-3-carboxamide]
IC50 ([1]; Homo sapiens, KG-1, 120 h): 13.8 nM | IC50 [2]: 1.07 nM | CC50 at 72 h [3]: > 100000 nM

Structure (SMILES): CN1CCN(C(=O)c2cnc3c(N)ncc(-c4ccc(-c5cnn(CC(=O)N(C)C)c5)cc4)c3c2)CC1 [Compound 3.49 × 2HCl, 2-(4-(4-(8-amino-3-(4-methylpiperazine-1-carbonyl)-1,7-naphthyridine-5-yl)phenyl)-1H-pyrazole-1-yl)-N,N-dimethylacetamide dihydrochloride]
IC50 ([1]; dihydrochloride): 16 nM | IC50 [2]: 1.64 nM

Structure (SMILES): COCCN(C)C(=O)c1cnc2c(N)ncc(-c3ccc(-c4cnn(CCOC)c4)cc3)c2c1 [Compound 3.57, 8-amino-N-(2-methoxyethyl)-5-(4-(1-(2-methoxyethyl)-1H-pyrazole-4-yl)phenyl)-N-methyl-1,7-naphthyridine-3-carboxamide]
IC50 ([1]; Homo sapiens, KG-1, 120 h): 17.1 nM | IC50 [2]: 2.27 nM | CC50 at 72 h [3]: ~90000 nM

The next lines start with results.

IC50 [2]: 1.24 nM
Structure (SMILES): COCCN(C)C(=O)c1cnc2c(N)ncc(-c3ccc(-c4cnn(CC(=O)N(C)C)c4)cc3)c2c1 [Compound 3.55]
IC50 ([1]; Homo sapiens, KG-1, 120 h): 6.5 nM | CC50 at 72 h [3]: > 100000 nM

Papp A→B at 2 h, 10 μM [6]: 15.7 ×10⁻⁶ cm/s | efflux ratio at 2 h, 10 μM [6]: 1.89 | IC50 [2]: 0.88 nM | Chemical stability in human blood plasma 4 h, % [4]: 100.0% | IC50 [5]: 0.5 nM
Structure (SMILES): CN(C)C(=O)Cn1cc(-c2ccc(-c3cnc(N)c4ncc(C(=O)NCC5CC5)cc34)cc2)cn1 [Compound 3.43, 8-Amino-N-(cyclopropylmethyl)-5-(4-(1-(2-(dimethylamino)-2-oxoethyl)-1H-pyrazole-4-yl)phenyl)-1,7-naphthyridine-3-carboxamide]
IC50 ([1]; Homo sapiens, KG-1, 120 h): 0.2 nM | CC50 at 72 h [3]: 68100 nM

Papp A→B at 2 h, 10 μM [6]: 26.2 ×10⁻⁶ cm/s | efflux ratio at 2 h, 10 μM [6]: 1.88 | IC50 [2]: 1.44 nM | Chemical stability in human blood plasma 4 h, % [4]: 100.0% | IC50 [5]: 16.9 nM
Structure (SMILES): COCCn1cc(-c2ccc(-c3cnc(N)c4ncc(C(=O)N5CCN(C)CC5)cc34)cc2)cn1 [Compound 3.51, (8-amino-5-(4-(1-(2-methoxyethyl)-1H-pyrazole-4-yl)phenyl)-1,7-naphthyridin-3-yl)(4-methylpiperazine-1-yl)methanone]
IC50 ([1]; Homo sapiens, KG-1, 120 h): 12.9 nM | CC50 at 72 h [3]: > 100000 nM

Papp A→B at 2 h, 10 μM [6]: 42.8 ×10⁻⁶ cm/s | efflux ratio at 2 h, 10 μM [6]: 0.55 | IC50 [2]: 1.27 nM | Chemical stability in human blood plasma 4 h, % [4]: 94.6% | IC50 [5]: 15.8 nM
Structure (SMILES): COCCn1cc(-c2ccc(-c3cnc(N)c4ncc(C(=O)N5CCC5)cc34)cc2)cn1 [Compound 3.54, (8-amino-5-(4-(1-(2-methoxyethyl)-1H-pyrazole-4-yl)phenyl)-1,7-naphthyridin-3-yl) (azetidin-1-yl)methanone]
IC50 ([1]; Homo sapiens, KG-1, 120 h): 12.2 nM | CC50 at 72 h [3]: ~90000 nM

IC50 [2]: 2.03 nM | IC50 [5]: 3.8 nM
Structure (SMILES): CN1CCN(C(=O)Cn2cc(-c3ccc(-c4cnc(N)c5ncc(C(=O)N6CCN(C)CC6)cc45)cc3)cn2)CC1 [Compound 3.50, 2-(4-(4-(8-amino-3-(4-methylpiperazine-1-carbonyl)-1,7-naphthyridine-5-yl)phenyl)-1H-pyrazole-1-yl)-1-(4-methylpiperazine-1yl)ethan-1-one]
IC50 ([1]; Homo sapiens, KG-1, 120 h): 26.6 nM | CC50 at 72 h [3]: > 100000 nM
